In US20190241952A1, “TAGGED MULTI-N[…] FOR NUCLEIC ACID SEQUENCING” (Roche Sequencing Solutions, Inc., priority 2016, published 2019):

Tests used:
[1] = system: exonuclease deficient variant of the Pol6 polymerase; assay: Displacement assay of single, double, triple and quadruple nucleotide substrates (Example 3); format: biochemical
Excerpt: B. Assay protocol: The assay is a displacement assay using an exonuclease deficient variant of the Pol6 polymerase as described in Example 2, wherein polymerase activity is followed by fluorometrically monitoring the change in FRET between the Cy5 and BHQ labels as the polymerase incorporates the substrates in the DNA extension reaction.
Briefly, an assay solution containing the Pol6 polymerase, the 5′-Cy5-labelled displacement DNA template of SEQ ID NO: 124, and the 3′-BHQ-labelled quencher primer of SEQ ID NO: 124 in 75 mM potassium glutamate (“K-Glu”) is prepared in the absence of the substrate or Mg^2+ ion. A substrate solution is prepared containing either the multi-nucleotide compound to be assayed (i.e., “Y-Tag,” “W-Tag,” or “Q-Tag”), the non-tagged dT6P (“Hexa-PO4), or the tagged single nucleotide substrate, dA6P-dT30-C3 (”Full Tag“) of compound (3d). Also included in the substrate solution are the other three nucleotide-hexaphosphate (”dN6P″) substrates required for polymerase synthesis of a strand complementary to the DNA template (i.e., dA6P, dC6P, dG6P). This substrate solution is added to the polymerase solution. Assays are carried out for each of the test substrates at the following initial concentrations: 0.25 μM, 0.5 μM, 1.0 μM, 2.0 μM, 4.0 μM, and 8.0 μM. Additional K-Glu is added to bring the total K-Glu concentration in the mixture up to 300 mM. The polymerase reaction is then initiated by addition of MgCl2. Final concentrations in the assay reaction mixture are: 100 nM Pol6 enzyme, 50 nM Cy5 displacement DNA template, 40 μM each of other dN6P substrates, 300 mM K-Glu, 25 mM HEPES, 0.2 mM EDTA, 0.05% Triton X-100, 5 mM TCEP, 25 μg/mL BSA, 5 mM MgCl2, pH 7.5.

[2] = system: α-HL-Pol6 nanopore-polymerase conjugate; format: biochemical

## Cc1cn([C@H]2C[C@H](O)[C@@H](COP(=O)(O)OP(=O)(O)OP(=O)(O)OP(=O)(O)OP(=O)(O)OP(=O)(O)O)O2)c(=O)[nH]c1=O [dT6P]
[1]; Initial Conc. Tag 0.25 μM
  Rate: 0.57 Bases/sec
[1]; Initial Conc. Tag 0.5 μM
  Rate: 2.87 Bases/sec
[1]; Initial Conc. Tag 1.0 μM
  Rate: 3.48 Bases/sec
[1]; Initial Conc. Tag 2.0 μM
  Rate: 3.89 Bases/sec
[1]; Initial Conc. Tag 4.0 μM
  Rate: 4.48 Bases/sec
[1]; Initial Conc. Tag 8.0 μM
  Rate: 4.24 Bases/sec

## (dA6P)2-dT5-(BHEB)-dT14-C3: two dA6P via doubler-linker on tag SEQ ID NO: 109 (DNA ttttttttttttttttttt; two dA6P via doubler linker; BHEB; C3; (5)..(6) bis-hydroxyethylbenzene residue between nucleotide residues 5 and 6; (19)..(19) T-propanol)
[2]
  blocking current level: 0.88+/−0.03

## (dC6P)2-dT20-C3: two dC6P via doubler-linker on tag SEQ ID NO: 105 (DNA tttttttttttttttttttt; two dC6P via doubler linker; C3; (20)..(20) T-propanol)
[2]
  blocking current level: 0.76+/−0.04

## (dG6P)2-dT6-(Tmp)6-dT8-C3: two dG6P via doubler-linker on tag SEQ ID NO: 107 (DNA TTTTTTTTTTTTTT; two dG6P via doubler linker; Tmp; C3; (6)..(7) 6 thymidine methylphosphonate residues between nucleotide residues 6 and 7; (14)..(14) T-propanol)
[2]
  blocking current level: 0.38+/−0.08

## (dT6P)2-dT4-(N3CET)3-dT13-C3: two dT6P via doubler-linker on tag SEQ ID NO: 106 (DNA TTTTTTTTTTTTTTTTT; chemistry not fully specified)
[2]
  blocking current level: 0.62+/−0.05
